Measured values reported in patent US7465754B1, “Method of potentiating chemotherapy and treating solid tumors” (Wyeth, priority 1999, dated 2008).

How the values were obtained:
[1] = test system: human non small-cell lung carcinoma (NSCLC) line H-157; experiment: H-157 NSCLC xenograft in nude mice, tumor growth; assay type: in vivo
Protocol: The potentiating effect of bioresponse modifiers on chemotherapeutic agents was evaluated in an in vivo standard pharmacological test procedure in which a human non small cell type lung cancer (NSCLC) cell line was engrafted onto the flanks of immunodeficient nude mice. The following briefly describes the test procedure used and results obtained. [R-(R*,R*)]-N-[(R)-6-Carboxy-N^2-[[2-carboxy-1-methyl-2-[(1-oxoheptyl)amino]ethoxy]carbonyl]-L-lysyl]-alanine was used as a representative bioresponse modifier and paclitaxcel was used a representative chemotherapeutic agent.
Balb-c nu/nu female mice were obtained from Charles River Laboratories at 6-8 weeks of age and used experimentally at 8-10 weeks of age. The human non small-cell lung carcinoma (NSCLC) line H-157 was obtained from the American tissue culture collection (ATCC) (Bethesda, Md.). Cells were grown in RPMI medium with 10% fetal bovine serum.
Mice were injected subcutaneously with 7.5×10^6H-157 NSCLC tumor cells. Tumors were allowed to develop until they reached a size of 80-150 mg. Tumor size was determined using vernier calipers to measure length (l) and width (w). The tumor volume was estimated using the formula l×w^2/2. The volume in mm^3 can be converted to milligrams directly assuming unit density. Seven days after injection, mice were randomized (day 0) into groups of 10 with a mean tumor mass of 100 mg. Treatment groups received paclitaxcel (30 mg/kg) on day 0 and either vehicle or [R-(R*,R*)]-N-[(R)-6-Carboxy-N^2-[[2-carboxy-1-methyl-2-[(1-oxoheptyl)amino]ethoxy]carbonyl]-L-lysyl]-alanine (100 μg/kg) on days 1 and 8.

[2] = test system: tumor cell growth in vitro; experiment: Tumor cell growth in vitro / cell culture; assay type: cell-based

Compound | % Suppression (Day 7) ([1]; Day 7, versus untreated control, paclitaxcel 30 mg/kg day 0, vehicle or CI 100 μg/kg days 1 and 8) [%] | Tumor size (mg) Day 7 ([1]; Day 7, paclitaxcel 30 mg/kg day 0, vehicle or CI 100 μg/kg days 1 and 8, mean ± standard deviation, 5 evaluations, 10 mice/group) | % Suppression (Day 14) ([1]; Day 14, versus untreated control, paclitaxcel 30 mg/kg day 0, vehicle or CI 100 μg/kg days 1 and 8) [%] | Tumor size (mg) Day 14 ([1]; Day 14, paclitaxcel 30 mg/kg day 0, vehicle or CI 100 μg/kg days 1 and 8, mean ± standard deviation, 5 evaluations, 10 mice/group) [mg] | tumor cell growth (in words) ([1]; day 7, Student's t test) | tumor growth (in words) ([1]; day 14) | potentiation of the growth inhibitory effect of paclitaxcel in cell culture ([2]; cell culture, with paclitaxcel) | direct inhibition of tumor cell growth in vitro ([2]; in vitro)
CC(=O)O[C@H]1C(=O)[C@@]2(C)[C@H]([C@H](OC(=O)c3ccccc3)[C@]3(O)C[C@H](OC(=O)[C@H](O)[C@@H](NC(=O)c4ccccc4)c4ccccc4)C(C)=C1C3(C)C)[C@]1(OC(C)=O)CO[C@@H]1C[C@@H]2O [Paclitaxcel, paclitaxcel] | 30 | ^c289 ± 108 mg | 30 | 866 ± 348 | inhibited tumor cell growth | not significantly suppressed versus control | – | –
CCCCCCC(=O)N[C@@H](C(=O)O)[C@@H](C)OC(=O)N[C@@H](CCC[C@@H](N)C(=O)O)C(=O)NC(C)C(=O)O (relative stereo) [CI, [R-(R*,R*)]-N-[(R)-6-carboxy-N^2-[[2-carboxy-1-methyl-2-[(1-oxoheptyl)amino]ethoxy]carbonyl]-L-lysyl]-alanine] | – | – | – | – | – | – | nor does it potentiate the growth inhibitory effect of paclitaxcel in cell culture | does not directly inhibit tumor cell growth in vitro
